Measured values reported in patent publication US12065442B2, “Tropomyosin receptor kinase (TRK) degradation compounds and methods of use” (Cullgen (Shanghai), Inc., priority 2018, dated 2024).

Tested on: KM12 cells
Experiment: Cell viability assay (CellTiter-Glo) in KM12 cells
Format: cell-based
Conditions: Homo sapiens, 72 h; Table 3; KM12 cell viability, CellTiter-Glo, 3 days; read-out: IC50

Row | SMILES | IC50 [nM]
1 | O=C1CCC(N2C(=O)c3ccc(NCCNC4CN(c5cccc(-c6cnc7ccc(N8CCC[C@@H]8c8cccc(F)c8)nn67)n5)C4)cc3C2=O)C(=O)N1 (stereo partly drawn) [TR-192, 2-(2,6-Dioxopiperidin-3-yl)-5-((2-((1-(6-(6-((R)-2-(3-fluorophenyl)pyrrolidin-1-yl)imidazo[1,2-b]pyridazin-3-yl)pyridin-2-yl)azetidin-3-yl)amino)ethyl)amino)isoindoline-1,3-dione] | 103
2 | O=C1CCC(N2C(=O)c3ccc(NCCC4CN(c5cccc(-c6cnc7ccc(N8CCC[C@@H]8c8cccc(F)c8)nn67)n5)C4)cc3C2=O)C(=O)N1 (stereo partly drawn) [TR-193, 2-(2,6-Dioxopiperidin-3-yl)-5-((2-(1-(6-(6-((R)-2-(3-fluorophenyl)pyrrolidin-1-yl)imidazo[1,2-b]pyridazin-3-yl)pyridin-2-yl)azetidin-3-yl)ethyl)amino)isoindoline-1,3-dione] | 1100
3 | O=C1CCC(N2C(=O)c3ccc(CCC(=O)N4CCN(c5cccc(-c6cnc7ccc(N8CCC[C@@H]8c8cccc(F)c8)nn67)n5)CC4)cc3C2=O)C(=O)N1 (stereo partly drawn) [TR-194, 2-(2,6-Dioxopiperidin-3-yl)-5-(3-(4-(6-(6-((R)-2-(3-fluorophenyl)pyrrolidin-1-yl)imidazo[1,2-b]pyridazin-3-yl)pyridin-2-yl)piperazin-1-yl)-3-oxopropyl)isoindoline-1,3-dione] | 7.4
4 | O=C1CCC(N2C(=O)c3ccc(/C=C/C(=O)N4CCN(c5cccc(-c6cnc7ccc(N8CCC[C@@H]8c8cccc(F)c8)nn67)n5)CC4)cc3C2=O)C(=O)N1 (stereo partly drawn) [TR-195, 2-(2,6-Dioxopiperidin-3-yl)-5-((E)-3-(4-(6-(6-((R)-2-(3-fluorophenyl)pyrrolidin-1-yl)imidazo[1,2-b]pyridazin-3-yl)pyridin-2-yl)piperazin-1-yl)-3-oxoprop-1-en-1-yl)isoindoline-1,3-dione] | 23.6
5 | O=C1CCC(N2Cc3ccc(NCCN4CCN(c5cccc(-c6cnc7ccc(N8CCC[C@@H]8c8cccc(F)c8)nn67)n5)CC4)cc3C2=O)C(=O)N1 (stereo partly drawn) [TR-196, 3-(6-((2-(4-(6-(6-((R)-2-(3-fluorophenyl)pyrrolidin-1-yl)imidazo[1,2-b]pyridazin-3-yl)pyridin-2-yl)piperazin-1-yl)ethyl)amino)-1-oxoisoindolin-2-yl)piperidine-2,6-dione] | 3.1
6 | O=C1CCC(N2C(=O)c3ccc(CN4CCN(c5cccc(-c6cnc7ccc(N8CCC[C@@H]8c8cccc(F)c8)nn67)n5)CC4)cc3C2=O)C(=O)N1 (stereo partly drawn) [TR-197, 2-(2,6-Dioxopiperidin-3-yl)-5-((4-(6-(6-((R)-2-(3-fluorophenyl)pyrrolidin-1-yl)imidazo[1,2-b]pyridazin-3-yl)pyridin-2-yl)piperazin-1-yl)methyl)isoindoline-1,3-dione] | 67.1
7 | O=C1CCC(N2C(=O)c3ccc(NCCCOCCN4CCN(c5cccc(-c6cnc7ccc(N8CCC[C@@H]8c8cccc(F)c8)nn67)n5)CC4)cc3C2=O)C(=O)N1 (stereo partly drawn) [TR-199] | 39.8
8 | O=C1CCC(N2Cc3cc(OCCN4CCN(c5cccc(-c6cnc7ccc(N8CCC[C@@H]8c8cccc(F)c8)nn67)n5)CC4)ccc3C2=O)C(=O)N1 (stereo partly drawn) [TR-200, 3-(5-(2-(4-(6-(6-((R)-2-(3-fluorophenyl)pyrrolidin-1-yl)imidazo[1,2-b]pyridazin-3-yl)pyridin-2-yl)piperazin-1-yl)ethoxy)-1-oxoisoindolin-2-yl)piperidine-2,6-dione] | 101
9 | O=C1CCC(N2Cc3ccc(OCCN4CCN(c5cccc(-c6cnc7ccc(N8CCC[C@@H]8c8cccc(F)c8)nn67)n5)CC4)cc3C2=O)C(=O)N1 (stereo partly drawn) [TR-201, 3-(6-(2-(4-(6-(6-((R)-2-(3-fluorophenyl)pyrrolidin-1-yl)imidazo[1,2-b]pyridazin-3-yl)pyridin-2-yl)piperazin-1-yl)ethoxy)-1-oxoisoindolin-2-yl)piperidine-2,6-dione] | > 500
10 | O=C1CCC(N2Cc3ccc(C#CC(=O)N4CCN(c5cccc(-c6cnc7ccc(N8CCC[C@@H]8c8cccc(F)c8)nn67)n5)CC4)cc3C2=O)C(=O)N1 (stereo partly drawn) [TR-202, 3-(6-(3-(4-(6-(6-((R)-2-(3-fluorophenyl)pyrrolidin-1-yl)imidazo[1,2-b]pyridazin-3-yl)pyridin-2-yl)piperazin-1-yl)-3-oxoprop-1-yn-1-yl)-1-oxoisoindolin-2-yl)piperidine-2,6-dione] | 4.3
11 | O=C1CCC(N2Cc3cc(C#CC(=O)N4CCN(c5cccc(-c6cnc7ccc(N8CCC[C@@H]8c8cccc(F)c8)nn67)n5)CC4)ccc3C2=O)C(=O)N1 (stereo partly drawn) [TR-203] | 3.7
12 | O=C1CCC(N2C(=O)c3ccc(CCN4CCN(c5cccc(-c6cnc7ccc(N8CCC[C@@H]8c8cccc(F)c8)nn67)n5)CC4)cc3C2=O)C(=O)N1 (stereo partly drawn) [TR-204, 2-(2,6-dioxopiperidin-3-yl)-5-(2-(4-(6-(6-((R)-2-(3-fluorophenyl)pyrrolidin-1-yl)imidazo[1,2-b]pyridazin-3-yl)pyridin-2-yl)piperazin-1-yl)ethyl)isoindoline-1,3-dione] | 10.6

Same assay, conditions: Homo sapiens, 72 h; Table 4; KM12 cell viability, CellTiter-Glo, 3 days; read-out: IC50

Row | SMILES | IC50 [nM]
13 | O=C1CCC(N2Cc3cc(N4CC(CN5CCN(c6cccc(-c7cnc8ccc(N9CCC[C@@H]9c9cccc(F)c9)nn78)n6)CC5)C4)ccc3C2=O)C(=O)N1 (stereo partly drawn) [TR-205, 3-(5-(3-((4-(6-(6-((R)-2-(3-Fluorophenyl)pyrrolidin-1-yl)imidazo[1,2-b]pyridazin-3-yl)pyridin-2-yl)piperazin-1-yl)methyl)azetidin-1-yl)-1-oxoisoindolin-2-yl)piperidine-2,6-dione] | 122
14 | O=C1CCC(N2Cc3cc(NC4CN(c5cccc(-c6cnc7ccc(N8CCC[C@@H]8c8cccc(F)c8)nn67)n5)C4)ccc3C2=O)C(=O)N1 (stereo partly drawn) [TR-206, 3-(5-((1-(6-(6-((R)-2-(3-Fluorophenyl)pyrrolidin-1-yl)imidazo[1,2-b]pyridazin-3-yl)pyridin-2-yl)azetidin-3-yl)amino)-1-oxoisoindolin-2-yl)piperidine-2,6-dione] | 15.8
15 | O=C1CCC(N2Cc3cc(N4CCN(c5cccc(-c6cnc7ccc(N8CCC[C@@H]8c8cccc(F)c8)nn67)n5)CC4)ccc3C2=O)C(=O)N1 (stereo partly drawn) [TR-207, 3-(5-(4-(6-(6-((R)-2-(3-Fluorophenyl)pyrrolidin-1-yl)imidazo[1,2-b]pyridazin-3-yl)pyridin-2-yl)piperazin-1-yl)-1-oxoisoindolin-2-yl)piperidine-2,6-dione] | 31.3
16 | O=C1CCC(N2Cc3cc(C#CC4CCN(c5cccc(-c6cnc7ccc(N8CCC[C@@H]8c8cccc(F)c8)nn67)n5)CC4)ccc3C2=O)C(=O)N1 (stereo partly drawn) [TR-208, 3-(5-((1-(6-(6-((R)-2-(3-fluorophenyl)pyrrolidin-1-yl)imidazo [1,2-b]pyridazin-3-yl)pyridin-2-yl)piperidin-4-yl)ethynyl)-1-oxoisoindolin-2-yl)piperidine-2,6-dione] | 7
17 | O=C1CCC(N2C(=O)c3ccc(NC(=O)C4CN(c5cccc(-c6cnc7ccc(N8CCC[C@@H]8c8cccc(F)c8)nn67)n5)C4)cc3C2=O)C(=O)N1 (stereo partly drawn) [TR-209, N-(2-(2,6-Dioxopiperidin-3-yl)-1,3-dioxoisoindolin-5-yl)-1-(6-(6-((R)-2-(3-fluorophenyl)pyrrolidin-1-yl)imidazo[1,2-b]pyridazin-3-yl)pyridin-2-yl)azetidine-3-carboxamide] | > 500
18 | O=C1CCC(N2Cc3cc(NCC4CN(c5cccc(-c6cnc7ccc(N8CCC[C@@H]8c8cccc(F)c8)nn67)n5)C4)ccc3C2=O)C(=O)N1 (stereo partly drawn) [TR-210, 3-(5-(((1-(6-(6-((R)-2-(3-Fluorophenyl)pyrrolidin-1-yl)imidazo[1,2-b]pyridazin-3-yl)pyridin-2-yl)azetidin-3-yl)methyl)amino)-1-oxoisoindolin-2-yl)piperidine-2,6-dione] | 14
19 | O=C1CCC(N2C(=O)c3ccc(N4CC(C(=O)N5CCN(c6cccc(-c7cnc8ccc(N9CCC[C@@H]9c9cccc(F)c9)nn78)n6)CC5)C4)cc3C2=O)C(=O)N1 (stereo partly drawn) [TR-211, 2-(2,6-Dioxopiperidin-3-yl)-5-(3-(4-(6-(6-((R)-2-(3-fluorophenyl)pyrrolidin-1-yl)imidazo[1,2-b]pyridazin-3-yl)pyridin-2-yl)piperazine-1-carbonyl)azetidin-1-yl)isoindoline-1,3-dione] | 2
20 | O=C1CCC(N2Cc3cc(NC4CCN(c5cccc(-c6cnc7ccc(N8CCC[C@@H]8c8cccc(F)c8)nn67)n5)CC4)ccc3C2=O)C(=O)N1 (stereo partly drawn) [TR-212, 3-(5-((1-(6-(6-((R)-2-(3-fluorophenyl)pyrrolidin-1-yl)imidazo[1,2-b]pyridazin-3-yl)pyridin-2-yl)piperidin-4-yl)amino)-1-oxoisoindolin-2-yl)piperidine-2,6-dione] | 15.8
21 | O=C1CCC(N2C(=O)c3ccc(NCC(=O)NC4CN(c5cccc(-c6cnc7ccc(N8CCC[C@@H]8c8cccc(F)c8)nn67)n5)C4)cc3C2=O)C(=O)N1 (stereo partly drawn) [TR-213, 2-((2-(2,6-Dioxopiperidin-3-yl)-1,3-dioxoisoindolin-5-yl)amino)-N-(1-(6-(6-((R)-2-(3-fluorophenyl)pyrrolidin-1-yl)imidazo[1,2-b]pyridazin-3-yl)pyridin-2-yl)azetidin-3-yl)acetamide] | 22.7
22 | COc1ccc(CN(CCN2CCN(c3cccc(-c4cnc5ccc(N6CCC[C@@H]6c6cccc(F)c6)nn45)n3)CC2)c2ccc3c(c2)C(=O)N(C2CCC(=O)NC2=O)C3=O)cc1 (stereo partly drawn) [TR-214, 2-(2,6-Dioxo-3-piperidyl)-5-(2-(4-(6-(6-((2R)-2-(3-fluorophenyl)pyrrolidin-1-yl)imidazo[1,2-b]pyridazin-3-yl)-2-pyridyl)piperazin-1-yl)ethyl-((4-methoxyphenyl)methyl)amino)isoindoline-1,3-dione] | 2.7
23 | O=C1CCC(N2C(=O)c3ccc(NC(=O)C4CCN(c5cccc(-c6cnc7ccc(N8CCC[C@@H]8c8cccc(F)c8)nn67)n5)CC4)cc3C2=O)C(=O)N1 (stereo partly drawn) [TR-215, N-(2-(2,6-Dioxopiperidin-3-yl)-1,3-dioxoisoindolin-5-yl)-1-(6-(6-((R)-2-(3-fluorophenyl)pyrrolidin-1-yl)imidazo[1,2-b]pyridazin-3-yl)pyridin-2-yl)piperidine-4-carboxamide] | > 500
24 | Cn1c(=O)n(C2CCC(=O)NC2=O)c2cccc(NCCN3CCN(c4cccc(-c5cnc6ccc(N7CCC[C@@H]7c7cccc(F)c7)nn56)n4)CC3)c21 (stereo partly drawn) [TR-216, 3-[4-[2-[4-[6-[6-[(2R)-2-(3-Fluorophenyl)pyrrolidin-1-yl]imidazo[1,2-b]pyridazin-3-yl]-2-pyridyl]piperazin-1-yl]ethylamino]-3-methyl-2-oxo-benzimidazol-1-yl]piperidine-2,6-dione] | 3.6
